Experimental findings from ChEMBL document CHEMBL3046154, “Synthesis and biological activity of 2-(4,5-dihydroisoxazol-5-yl)-1,3,4-oxadiazoles” (2009) are described below.

What all share (assay type): functional
Common to all, as to parameters: concentration or dose not given beside the values

The subject of one assay is Spodoptera exigua. Briefly: Insecticidal activity against Spodoptera exigua assessed as mortality.
A further assay has as its system Zymoseptoria tritici. Put plainly: Antifungal activity against Zymoseptoria tritici assessed as disease control.
The next assay relates to Pyricularia oryzae. Put plainly: Antifungal activity against Magnaporthe oryzae assessed as disease control.

With `CC1(c2nnc(-c3ccc(Cl)cc3)o2)CC(c2ccncc2)=NO1` (stereo not drawn), the figures for the Activity in the assay with Spodoptera exigua, in the assay with Zymoseptoria tritici and in the assay with Pyricularia oryzae were 0%, 70% and 30%, respectively.
Taken in the same sequence, the figures for `CC1(c2nnc(-c3ccc(Cl)cc3)o2)CC(c2ccc(Cl)cc2)=NO1` (stereo not drawn) were 17%, 0% and 50%.
The like results for `CC1(c2nnc(Cc3ccccc3)o2)CC(c2ccc([N+](=O)[O-])cc2)=NO1` (stereo not drawn) were, in that order, 17%, 30% and 30%.
The like results for `Clc1cccc(C2=NOC(c3nnc(-c4ccccc4)o3)C2)c1` (stereo not drawn) were, in that order, 0%, 0% and 30%.
Take `Clc1cccc(Cl)c1C1=NOC(c2nnc(-c3ccccc3)o2)C1` (stereo not drawn): the Activity with Spodoptera exigua was determined as 17%; in the assay on Zymoseptoria tritici, 30%; with Pyricularia oryzae, 40%.
The like results for `Fc1ccc(C2=NOC(c3nnc(-c4ccccc4)o3)C2)cc1` (stereo not drawn) were, in that order, 17%, 0% and 30%.
The like results for `CC1(c2nnc(-c3ccc(Cl)cc3)o2)CC(c2cccc(Cl)c2)=NO1` (stereo not drawn) were, in that order, 50%, 10% and 50%.
The like results for `CC1(c2nnc(-c3cccc(Cl)c3)o2)CC(c2cccc(Cl)c2)=NO1` (stereo not drawn) were, in that order, 33%, 0% and 30%.
In the case of `c1ccc(-c2nnc(C3CC(c4ccncc4)=NO3)o2)cc1` (stereo not drawn), the Activity with Spodoptera exigua, in the assay on Zymoseptoria tritici and with Pyricularia oryzae was 0% throughout.
Turning to `CC1(c2nnc(-c3cccc(Cl)c3)o2)CC(c2ccccc2)=NO1` (stereo not drawn), the figures for the Activity in the assay on Spodoptera exigua, in the assay on Zymoseptoria tritici and with Pyricularia oryzae were 17%, 10% and 40%, respectively.
Taken in the same sequence, the figures for `CC1(c2nnc(-c3ccc(Cl)cc3)o2)CC(c2ccc([N+](=O)[O-])cc2)=NO1` (stereo not drawn) were 0%, 40% and 30%.
The like results for `CC1(c2nnc(-c3cccc(Cl)c3)o2)CC(c2ccc(Cl)cc2)=NO1` (stereo not drawn) were, in that order, 50%, 0% and 40%.
For `Clc1ccc(C2=NOC(c3nnc(-c4ccccc4)o3)C2)cc1` (stereo not drawn), the Activity in the assay on Spodoptera exigua is reported as 17%; in the assay on Zymoseptoria tritici, 0%; in the assay with Pyricularia oryzae it was 0%.
Regarding `CC1(c2nnc(Cc3ccccc3)o2)CC(c2c(Cl)cccc2Cl)=NO1` (stereo not drawn), the Activity in the assay on Spodoptera exigua, with Zymoseptoria tritici and with Pyricularia oryzae was 0% in each case.
As for `CC1(c2nnc(-c3cccc(Cl)c3)o2)CC(c2ccc(F)cc2)=NO1` (stereo not drawn), the values for the Activity in the assay with Spodoptera exigua, in the assay on Zymoseptoria tritici and in the assay on Pyricularia oryzae were 0%, 10% and 50%, respectively.
Taken in the same sequence, the figures for `CC1(c2nnc(-c3cccc(Cl)c3)o2)CC(c2c(Cl)cccc2Cl)=NO1` (stereo not drawn) were 50%, 0% and 50%.
